Laboratory results published in patent US4758580A, “Inhibiting growth of tumors with certain substituted phenoxy dimethyl alkanoic acids, esters or salts” (Yamanouchi Pharmaceutical Co., Ltd., priority 1985, dated 1988).

Legend:
[1] = tested on: Ehrlich solid tumor; test: Anti-tumor test against Ehrlich solid tumor; assay type: in vivo, ddY/SLC mice
Experimental: Ehrlich tumor cells, 2×10^6, on Day 7 after intraperitoneal transplantation to ddY/SLC mice were subcutaneously transplanted in the left abdomen of ddY/SLC mice (5 week age, male), 10 each grouped into one. The active component was intraperitoneally or orally administered in a definite dose 24 hours after the transplantation, according to the schedule shown in Table 1 (A), (B) or (C). An effect of inhibiting growth of tumor was compared, by measuring the long diameter and short diameter of the tumor on 14, 20 and 21 Days after the transplantation, calculating the tumor size (mm^2) and determining a tumor growth inhibition rate of the group administered with the active component to the control group according to the following equation:
Growth inhibition rate (%)=(C-T)/C×100
T: means tumor size (mm^2) in the active component-administered group
C: mean tumor size (mm^2) in the control group

[2] = tested on: melanoma BL-6; test: Inhibition of experimental metastasis (to the lung) of melanoma BL-6 in mice; assay type: in vivo, male BDF1 /SLC mice; conditions: 22th day
Experimental: (b) Inhibition of experimental metastasis (to the lung) of melanoma BL-6 in mice
BL-6 cancer cells, 5×10^4, were inoculated into the tail veins of male BDF1 /SLC mice (6 week age) of 6 mice each being grouped in one (13 mice for the control group). The test compounds were administered orally in a definite dose 24 hours after the inoculation. In order to see metastasis-inhibitory effect, on 22th day after the inoculation, the mice were anatomised to observe the metastasis to the lungs. The degree of metastasis was evaluated by the number of pulmonary nodules. [formula] T: Median number of pulmonary nodules of the administered group C: Median number of pulmonary nodules of the control group

[3] = tested on: MM-46 solid tumor; test: Test against mouse mammalian MM-46 solid tumor; assay type: in vivo, C3 H/He/SLC mice; conditions: 1-9 Days
Experimental: (§1) MM-46 Tumor cells, 1×10^6, on Day 7 after intraperitoneal transplantation to C3 H/He/SLC mice were subcutaneously transplanted to the left abdomen of C3 H/He/SLC mice (5 week age, male) of 8 mice each being grouped in one (21 mice for the control group). The active component was orally administered in a definite dose 24 hours after the transplantation according to the schedule shown in Table 2. An effect of tumor growth inhibition was compared by measuring the long diameter and short diameter of the tumor on Days 14 and 21 after the transplantation, calculating the tumor size (mm^2) and determining a tumor growth inhibition rate of the active component-administered group to the control group.

[4] = tested on: Meth A solid tumor; test: Anti-tumor test against methyl cholanthrene-induced Meth A solid tumor; assay type: in vivo, Balb/C/SLC mice; conditions: 1-8 Days
Experimental: as §1, with “Meth A tumor” for “MM-46 Tumor”, “1.5×10^6,” for “1×10^6,”, “Balb/C/SLC” for “C3 H/He/SLC”, “(16” for “(21”, “3.” for “2.”, “15” for “14”

[5] = Day 14, 25 mg/kg i.p., Days 1, 2, 3, 5, 6, 7 & 9
[6] = Day 14, 50 mg/kg i.p., Days 1, 2, 3, 5, 6, 7 & 9
[7] = Day 14, 100 mg/kg i.p., Days 1, 2, 3, 5, 6, 7 & 9
[8] = Day 21, 25 mg/kg i.p., Days 1, 2, 3, 5, 6, 7 & 9
[9] = Day 21, 50 mg/kg i.p., Days 1, 2, 3, 5, 6, 7 & 9
[10] = Day 21, 100 mg/kg i.p., Days 1, 2, 3, 5, 6, 7 & 9
[11] = Day 14, 50 mg/kg i.p., Days 1, 2, 3, 4, 6, 7, 8, 9
[12] = Day 14, 100 mg/kg i.p., Days 1, 2, 3, 4, 6, 7, 8, 9
[13] = Day 21, 50 mg/kg i.p., Days 1, 2, 3, 4, 6, 7, 8, 9
[14] = Day 21, 100 mg/kg i.p., Days 1, 2, 3, 4, 6, 7, 8, 9
[15] = 50 mg/kg oral, 1, 2, 3, 5, 6, 7, 8, 9 and 10 days
[16] = 100 mg/kg oral, 1, 2, 3, 5, 6, 7, 8, 9 and 10 days
[17] = Day 14, 1.0 mg/kg i.p., Days 1, 2, 3, 5 & 6
[18] = Day 21, 1.0 mg/kg i.p., Days 1, 2, 3, 5 & 6

CCOC(=O)C(C)(C)CCCCCOc1ccc(OCCCCCn2ccnc2)cc1 [Compound C]
Growth Inhibition Rate [1, 5]: 18.4% | Size of Tumor [1, 5]: 191.1 ± 88.8 mm^2 | Growth Inhibition Rate [1, 6]: 42.4% | Size of Tumor [1, 6]: 135.0 ± 66.9 mm^2 | Growth Inhibition Rate [1, 7]: 54.2% | Size of Tumor [1, 7]: 107.3 ± 46.7 mm^2 | Growth Inhibition Rate [1, 8]: 31.9% | Size of Tumor [1, 8]: 363.1 ± 188.8 mm^2 | Growth Inhibition Rate [1, 9]: 61.0% | Size of Tumor [1, 9]: 207.9 ± 139.7 mm^2 | Growth Inhibition Rate [1, 10]: 4.2% | Size of Tumor [1, 10]: 190.7 ± 69.1 mm^2

COC(=O)C(C)(C)CCCOc1ccc(OCCCOc2cccnc2)cc1 [Compound I, methyl 2,2-dimethyl-5-[p-[3-(3-pyridyloxy)propoxy]phenoxy]pentanoate]
Growth Inhibition Rate [1, 5]: 29.6% | Size of Tumor [1, 5]: 164.9 ± 96.2 mm^2 | Growth Inhibition Rate [1, 6]: 26.2% | Size of Tumor [1, 6]: 172.8 ± 82.9 mm^2 | Growth Inhibition Rate [1, 7]: 36.5% | Size of Tumor [1, 7]: 148.7 ± 66.8 mm^2 | Growth Inhibition Rate [1, 8]: 36.9% | Size of Tumor [1, 8]: 336.6 ± 160.0 mm^2 | Growth Inhibition Rate [1, 9]: 30.7% | Size of Tumor [1, 9]: 369.1 ± 203.5 mm^2 | Growth Inhibition Rate [1, 10]: 45.6% | Size of Tumor [1, 10]: 290.2 ± 115.5 mm^2

CCOC(=O)C(C)(C)CCCCOc1ccc(OCCCCCOc2ccccn2)cc1 [Compound J, ethyl 6-[p-[5-(2-pyridyloxy)pentyloxy)phenoxy]-2,2-dimethylhexanoate]
Growth Inhibition Rate [1, 11]: 20.9% | Size of Tumor [1, 11]: 201.7 ± 48.2 mm^2 | Growth Inhibition Rate [1, 12]: 34.7% | Size of Tumor [1, 12]: 166.5 ± 65.3 mm^2 | Growth Inhibition Rate [1, 13]: 19.2% | Size of Tumor [1, 13]: 344.7 ± 108.4 mm^2 | Growth Inhibition Rate [1, 14]: 38.2% | Size of Tumor [1, 14]: 263.5 ± 97.1 mm^2

O=c1[nH]c(=O)n(C2CCCO2)cc1F (stereo not shown) [Futoraful, reference compound]
Pulmonary metastasis-inhibition rate [2, 15]: 35.7% | The number of pulmonary nodules, median [2, 15]: 13.5 | The number of pulmonary nodules, range [2, 15]: 1-49 | Pulmonary metastasis-inhibition rate [2, 16]: 69.0% | The number of pulmonary nodules, median [2, 16]: 6.5 | The number of pulmonary nodules, range [2, 16]: 1-16

CO[C@@]12[C@H](COC(N)=O)C3=C(C(=O)C(C)=C(N)C3=O)N1C[C@@H]1N[C@@H]12 [Mitomycin, reference compound]
Growth Inhibition Rate [1, 17]: 67.7% | Size of Tumor [1, 17]: 75.6 ± 31.5 mm^2 | Growth Inhibition Rate [1, 18]: 80.0% | Size of Tumor [1, 18]: 106.8 ± 62.2 mm^2

O=c1[nH]c(=O)n(C2CCCO2)cc1F (stereo not shown) [Tetrahydrofuryl-5-fluorouracil, reference compound]
Growth Inhibition Rate ([3]; Day 14, 50 mg/kg p.o.): 14.2% | Size of Tumor ([3]; Day 14, 50 mg/kg p.o.): 216.0 ± 55.1 mm^2 | Growth Inhibition Rate ([3]; Day 14, 100 mg/kg p.o.): 14.7% | Size of Tumor ([3]; Day 14, 100 mg/kg p.o.): 214.8 ± 55.6 mm^2 | Growth Inhibition Rate ([3]; Day 21, 50 mg/kg p.o.): 26.9% | Size of Tumor ([3]; Day 21, 50 mg/kg p.o.): 247.0 ± 101.8 mm^2 | Growth Inhibition Rate ([3]; Day 21, 100 mg/kg p.o.): 26.0% | Size of Tumor ([3]; Day 21, 100 mg/kg p.o.): 250.1 ± 92.9 mm^2 | Growth Inhibition Rate ([4]; Day 15, 50 mg/kg p.o.): 45.1% | Size of Tumor ([4]; Day 15, 50 mg/kg p.o.): 123.4 ± 69.9 mm^2 | Growth Inhibition Rate ([4]; Day 15, 100 mg/kg p.o.): 58.6% | Size of Tumor ([4]; Day 15, 100 mg/kg p.o.): 93.1 ± 50.3 mm^2 | Growth Inhibition Rate ([4]; Day 21, 50 mg/kg p.o.): 50.7% | Size of Tumor ([4]; Day 21, 50 mg/kg p.o.): 235.8 ± 124.4 mm^2 | Growth Inhibition Rate ([4]; Day 21, 100 mg/kg p.o.): 44.7% | Size of Tumor ([4]; Day 21, 100 mg/kg p.o.): 264.4 ± 110.6 mm^2
